This note sets out measurements from US10660967B2, “Curcumin conjugates and methods of use thereof” (priority 2016, dated 2020).

Read-outs that look alike come from different tables or passages of the source.

One data set concerns gastric mucosa. Briefly: Ulcerogenic liability (ulcer index). It counts as in vivo, albino mice. As to conditions: orally, three successive days, 10 mg/kg indomethacin mol equivalent; for Number of animals with ulcer: 6 animals per group; for Ulcer index: sum of the three values. In short, it runs like this:
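Albino mice were fasted 18 h before dosing, and controls got saline with a few drops of Tween 80. Gastric mucosa was checked under a 10× lens for lesions and erosions. The ulcer index combines percentage incidence divided by 10, mean ulcers per stomach and mean severity.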

In data set [1] the test system is lipopolysaccharide-stimulated peritoneal macrophages. Briefly: Production of nitric oxide by lipopolysaccharide-stimulated peritoneal macrophages (Greiss reagent). It counts as cell-based. More on the design: Potency (%): % inhibition of nitric oxide production relative to lipopolysaccharide-stimulated macrophages: concentration or dose not given beside the values. The note with it: LPS-stimulated peritoneal macrophages; for Nitric oxide (nitrite) concentration, μM (average ± SD): 24 h, nitrite by Greiss reagent. In short, it runs like this: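 Macrophages in nitrite-free medium with 0.1% BSA were stimulated with LPS at 0.5–10 ng/ml, some wells also receiving epinephrine, norepinephrine or dopamine at […], for 24 h at 37° C. Nitrite in supernatants was measured with Greiss reagent, 15 min at room temperature, absorbance 532 nm.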

Another data set has as its system MCF-7 cells. Nature of the data set: Effect on doxorubicin induced cytotoxicity (MTT). In short, it runs like this: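 MCF-7 cells were exposed for 48 hr to 100 μM curcumin derivative alone or combined with 10 μM doxorubicin. Controls got medium, DMSO vehicle, or vehicle+doxorubicin. Percent viable cells was read by MTT assay.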
Data set [2] has as its system Staphylococcus aureus ATCC25923. Nature of the data set: Antimicrobial MIC, agar dilution. In general terms: In agar dilution, organisms are placed on agar that contains the substance at set levels.
Data set [3] concerns Streptococcus pyogenes ATCC19615. Nature of the data set: Antimicrobial MIC, agar dilution.
Data set [4] deals with Candida albicans (local isolate). Nature of the data set: Antimicrobial MIC, agar dilution. As to conditions: Candida albicans, read-out: Minimum inhibitory concentration (MIC).
The subject of data set [5] is A-549 (lung) carcinoma cell line. Nature of the data set: Anti-tumor properties, MTT. As to conditions: Homo sapiens, A549. It counts as cell-based.
Data set [6] relates to PC3 (prostate) carcinoma cell line. Briefly: Anti-tumor properties, MTT. It counts as cell-based. The note with it: Homo sapiens.
Setting [7] is: ATCC25923, 18 h, read-out: Minimum inhibitory concentration (MIC).
Setting [8] is: ATCC25923, read-out: Minimum inhibitory concentration (MIC).
Where [9] appears, read: ATCC19615, 18 h, read-out: Minimum inhibitory concentration (MIC).
Where [10] appears, read: ATCC19615, read-out: Minimum inhibitory concentration (MIC).

`COc1cc(/C=C/C(=O)CC(=O)/C=C/c2ccc(OC(=O)C(C)NC(=O)OCc3ccccc3)c(OC)c2)ccc1OC(=O)C(C)NC(=O)OCc1ccccc1` (racemic) [Cbz-DL-Ala-Cur, ((1E,6E)-3,5-dioxohepta-1,6-diene-1,7-diyl)bis(2-methoxy-4,1-phenylene) bis(2-(((benzyloxy)carbonyl)amino)propanoate)]: in the data set with gastric mucosa, the “% Incidence of ulcer divided by 10” value is given as 3.33, the “Average of ulcer number” value is given as 0.67, the “Average severity of ulcer” value worked out at 0.67 and the “Number of animals with ulcer” value is 2/6. The Ulcer index with gastric mucosa is recorded as 4.67. Further, in data set [1], the “Potency (%): % inhibition of nitric oxide production relative to lipopolysaccharide-stimulated macrophages” value is given as 45.41% and the “Nitric oxide (nitrite) concentration, μM (average ± SD)” value stood at 14.91 ± 0.62 µM. The “Percentage of viable cells MCF-7 (average ± SD)” value in the data set on MCF-7 cells (10 μM DOX in combination with 100 μM curcumin derivative, 48 hr) came out at 45.70 ± 2.23. Moreover, in the data set on MCF-7 cells (Homo sapiens, MCF7, 48 h, read-out: Percentage of viable cells MCF-7 (average ± SD)), the viability at 100 µM is 98.8 ± 4.55%. The MIC in data set [2] (setting [7]) is 0.5 µg/mL. Further, in data set [2] (setting [8]), the MIC was found to be 0.642 µM. Besides, the MIC in data set [3] (setting [9]) is 0.125 µg/mL. The MIC in data set [3] (setting [10]) was determined as 0.161 µM. The MIC in data set [4] (18 h) was found to be 0.5 µg/mL. Besides, in data set [4], the MIC was determined as 0.642 µM.
For orientation: IC50 means the concentration that gives 50% inhibition. Take `COc1cc(/C=C/C(=O)CC(=O)/C=C/c2ccc(OC(=O)[C@H](N)CCSC)c(OC)c2)ccc1OC(=O)[C@H](N)CCSC.Cl.Cl` [HCl-D-Met-Cur, (2R,2′R)-1,1′-((((1E,6E)-3,5-dioxohepta-1,6-diene-1,7-diyl)bis(2-methoxy-4,1-phenylene))bis(oxy))bis(4-(methylthio)-1-oxobutan-2-aminium) chloride]: the “% Incidence of ulcer divided by 10” value in the data set on gastric mucosa came to 0. The “Average of ulcer number” value in the data set on gastric mucosa stood at 0. For the same compound, the “Average severity of ulcer” value in the data set on gastric mucosa came out at 0. Also, in the data set on gastric mucosa, the “Number of animals with ulcer” value was 0/6. Moreover, in the data set with gastric mucosa, the Ulcer index is 0. In addition, the “Potency (%): % inhibition of nitric oxide production relative to lipopolysaccharide-stimulated macrophages” value in data set [1] is 49.57%. In addition, in data set [1], the “Nitric oxide (nitrite) concentration, μM (average ± SD)” value was found to be 13.77 ± 0.96 µM. Moreover, the IC50 in data set [5] was found to be 20 µM; in data set [6], 41.5 µM. For the same compound, the MIC was 0.125 µg/mL in data set [2] (setting [7]); 0.178 µM in data set [2] (setting [8]); 0.25 µg/mL in data set [3] (setting [9]); 0.355 µM in data set [3] (setting [10]); 1 µg/mL in data set [4] (18 h); 1.42 µM in data set [4].
